Test results as given in patent US20160229839A1, “Factor XIa Inhibitors” (Merck Sharp & Dohme Corp., priority 2013, published 2016).

Molecular target: T1, purified human Factor XIa (Homo sapiens, UniProt P03951)
T1 construct: purified human Factor XIa; purchased Sekisui Diagnostics
Test: Factor XIa Assay (fluorogenic substrate Z-Gly-Pro-Arg-AFC)
Assay type: biochemical
Conditions: purified human Factor XIa 40 pM; Z-Gly-Pro-Arg-AFC 100 μM; 50 mM HEPES pH 7.4; read-out: hFXIa Ki (nM), Factor XIa inhibition
Experimental: The effectiveness of compound of the present invention as inhibitors of Coagulation Factor XIa can be determined using a relevant purified serine protease, and an appropriate synthetic substrate. The rate of hydrolysis of the chromogenic or fluorogenic substrate by the relevant serine protease was measured both in the absence and presence of compounds of the present invention. Assays were conducted at room temperature or at 37° C. […] A decrease in the rate of fluorescence change in the presence of inhibitor is indicative of enzyme inhibition. Such methods are known to one skilled in the art. The results of this assay are expressed as the inhibitory constant, Ki.
Factor XIa determinations were made in 50 mM HEPES buffer at pH 7.4 containing 150 mM NaCl, 5 mM CaCl2, and 0.1% PEG 8000 (polyethylene glycol; J T Baker or Fisher Scientific). Determinations were made using purified human Factor XIa at a final concentration of 40 pM (Sekisui Diagnostics) and he synthetic substrate, Z-Gly-Pro-Arg-AFC, TFA salt (Sigma #C0980) at a concentration of 100 μM.
Activity assays were performed by diluting a stock solution of substrate at least tenfold to a final concentration ≦0.1 Km into a solution containing enzyme or enzyme equilibrated with inhibitor. Times required to achieve equilibration between enzyme and inhibitor were determined in control experiments. Initial velocities of product formation in the absence (Vo) or presence of inhibitor (Vi) were measured. Assuming competitive inhibition, and that unity is negligible compared Km/[S], [I]/e, and [I]/e (where [S], [I], and e respectively represent the total concentrations, of substrate, inhibitor and enzyme), the equilibrium constant (Ki) for dissociation of the inhibitor from the enzyme can be obtained from the dependence of Vo/Vi on [I] shown in the following equation.

T1 sequence (P03951 388-625 limits assumed): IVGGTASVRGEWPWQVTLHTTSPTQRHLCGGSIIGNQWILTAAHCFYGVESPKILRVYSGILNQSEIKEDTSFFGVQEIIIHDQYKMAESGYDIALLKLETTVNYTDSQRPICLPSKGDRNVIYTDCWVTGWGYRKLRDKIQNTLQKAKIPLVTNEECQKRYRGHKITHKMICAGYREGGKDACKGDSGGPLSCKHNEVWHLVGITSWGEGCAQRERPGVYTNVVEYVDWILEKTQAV
T1 sequence (P03951 19-387 partner limits assumed): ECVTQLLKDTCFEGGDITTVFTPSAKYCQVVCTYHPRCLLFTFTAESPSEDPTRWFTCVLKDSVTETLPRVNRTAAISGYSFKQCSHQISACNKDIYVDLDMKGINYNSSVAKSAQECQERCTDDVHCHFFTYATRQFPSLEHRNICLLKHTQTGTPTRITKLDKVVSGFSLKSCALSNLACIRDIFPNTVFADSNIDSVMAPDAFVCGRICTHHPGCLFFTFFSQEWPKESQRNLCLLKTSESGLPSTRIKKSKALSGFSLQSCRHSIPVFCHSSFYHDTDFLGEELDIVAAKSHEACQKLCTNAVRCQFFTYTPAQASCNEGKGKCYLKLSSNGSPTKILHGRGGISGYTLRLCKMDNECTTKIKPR

Ki | Compound
95.8 nM | COC(=O)Nc1ccc(-c2nc(C3C(c4ccccc4)CCCN3C(=O)/C=C/c3cc(Cl)ccc3-n3cnnn3)[nH]c2C)cc1 (centres unmarked) [Example 1-52, (E)-methyl (4-(2-(1-(3-(5-chloro-2-(1H-tetrazol-1-yl)phenyl)acryloyl)-3-phenylpiperidin-2-yl)-5-methyl-1H-imidazol-4-yl)phenyl)carbamate]
> 10000 nM | O=C(/C=C/c1cc(Cl)ccc1-n1cnnn1)N1CCCC(c2ccccc2)C1c1nc(-c2ccc3[nH]c(=O)oc3c2)c[nH]1 (centres unmarked) [Example 1-53, (E)-6-(2-(1-(3-(5-chloro-2-(1H-tetrazol-1-yl)phenyl)acryloyl)-3-phenylpiperidin-2-yl)-1H-imidazol-4-yl)benzo[d]oxazol-2(3H)-one]
31.5 nM | COC(=O)Nc1ccc(-c2nc([C@@H]3[C@H](c4ccccc4)CCCN3C(=O)/C=C/c3cc(Cl)ccc3-n3cnnn3)[nH]c2Cl)cc1 [Example 1-55, Methyl (4-(5-chloro-2-((2S,3S)-1-((E)-3-(5-chloro-2-(1H-tetrazol-1-yl)phenyl)acryloyl)-3-phenylpiperidin-2-yl)-1H-imidazol-4-yl)phenyl)carbamate]
4010 nM | O=C(O)c1ccc(NC(=O)[C@H]2[C@@H](c3ccccc3)CCCN2C(=O)/C=C/c2cc(Cl)ccc2-n2cnnn2)cc1 [Example 1-56, 4-((2R,3R)-1-((E)-3-(5-chloro-2-(1H-tetrazol-1-yl)phenyl)acryloyl)-3-phenylpiperidine-2-carboxamido)benzoic acid]
56.9 nM | O=C(O)c1cccc(-c2c[nH]c(C3C(c4ccccc4)CCCN3C(=O)/C=C/c3cc(Cl)ccc3-n3cnnn3)n2)c1 (centres unmarked) [Example 1-58, (E)-3-(2-(1-(3-(5-chloro-2-(1H-tetrazol-1-yl)phenyl)acryloyl)-3-phenylpiperidin-2-yl)-1H-imidazol-4-yl)benzoic acid]
13.9 nM | O=C(Nc1ccc2[nH]ncc2c1)C1C(c2ccccc2)CCCN1C(=O)/C=C/c1cc(Cl)ccc1-n1cnnn1 (centres unmarked) [Example 1-59, (E)-1-(3-(5-chloro-2-(1H-tetrazol-1-yl)phenyl)acryloyl)-N-(1H-indazol-5-yl)-3-phenylpiperidine-2-carboxamide]
145 nM | O=C(Nc1ccc2[nH]ncc2c1)C1C(c2ccccc2)CCCN1C(=O)/C=C/c1cc(Cl)ccc1-n1cnnn1 (centres unmarked) [Example 1-60, (E)-1-(3-(5-chloro-2-(1H-tetrazol-1-yl)phenyl)acryloyl)-N-(1H-indazol-5-yl)-3-phenylpiperidine-2-carboxamide]
91.6 nM | O=C(Nc1ccc2cn[nH]c2c1)C1C(c2ccccc2)CCCN1C(=O)/C=C/c1cc(Cl)ccc1-n1cnnn1 (centres unmarked) [Example 1-61, (E)-1-(3-(5-chloro-2-(1H-tetrazol-1-yl)phenyl)acryloyl)-N-(1H-indazol-6-yl)-3-phenylpiperidine-2-carboxamide]
> 10000 nM | O=C1Cc2cc(-c3cnc([C@H]4[C@@H](c5ccccc5)CCCN4C(=O)/C=C/c4cc(Cl)ccc4-n4cnnn4)[nH]3)ccc2N1 [Example 1-62, 2-((2R,3R)-1-((E)-3-(5-chloro-2-(1H-tetrazol-1-yl)phenyl)acryloyl)-3-phenylpiperidin-2-yl)-5-(2-oxoindolin-5-yl)-1H-imidazol-3-ium 2,2,2-trifluoroacetate]
207 nM | O=C1Cc2cc(-c3cnc([C@@H]4[C@H](c5ccccc5)CCCN4C(=O)/C=C/c4cc(Cl)ccc4-n4cnnn4)[nH]3)ccc2N1 [Example 1-63, 5-(2-((2S,3S)-1-((E)-3-(5-chloro-2-(1H-tetrazol-1-yl)phenyl)acryloyl)-3-phenylpiperidin-2-yl)-1H-imidazol-5-yl)indolin-2-one]
> 10000 nM | COC(=O)Nc1ccc(-c2nc([C@H]3[C@@H](c4ccccc4)CCCN3C(=O)/C=C/c3cc(Cl)ccc3-n3cnnn3)[nH]c2Cl)cc1 [Example 1-64, methyl (4-(5-chloro-2-((2R,3R)-1-((E)-3-(5-chloro-2-(1H-tetrazol-1-yl)phenyl)acryloyl)-3-phenylpiperidin-2-yl)-1H-imidazol-4-yl)phenyl)carbamate]
31.4 nM | O=C(Nc1ccc2[nH]ncc2c1)[C@@H]1[C@H](c2ccccc2)CCCN1C(=O)/C=C/c1cc(Cl)ccc1-n1cnnn1 [Example 1-65, (2S,3S)-1-((E)-3-(5-chloro-2-(1H-tetrazol-1-yl)phenyl)acryloyl)-N-(1H-indazol-5-yl)-3-phenylpiperidine-2-carboxamide]
3910 nM | COC(=O)Nc1ccc(-c2c[nH]c([C@@H]3[C@H](CO[Si](C)(C)C(C)(C)C)CCCN3C(=O)/C=C/c3cc(Cl)ccc3-n3cnnn3)n2)cc1 [Example 1-66, methyl (4-(2-((2S,3R)-3-(((tert-butyldimethylsilyl)oxy)methyl)-1-((E)-3-(5-chloro-2-(1H-tetrazol-1-yl)phenyl)acryloyl)piperidin-2-yl)-1H-imidazol-4-yl)phenyl)carbamate]
2640 nM | COC(=O)Nc1ccc(-c2c[nH]c([C@@H]3[C@H](CO)CCCN3C(=O)/C=C/c3cc(Cl)ccc3-n3cnnn3)n2)cc1 [Example 1-67, methyl (4-(2-((2S,3R)-1-((E)-3-(5-chloro-2-(1H-tetrazol-1-yl)phenyl)acryloyl)-3-(hydroxymethyl)piperidin-2-yl)-1H-imidazol-4-yl)phenyl)carbamate]
428 nM | O=C(/C=C/c1cc(Cl)ccc1-n1cnnn1)N1CCC[C@@H](c2ccccc2)[C@H]1c1nc2cc(F)ccc2[nH]1 [Example 1-68, (E)-3-(5-chloro-2-(1H-tetrazol-1-yl)phenyl)-1-((2S,3S)-2-(5-fluoro-1H-benzo[d]imidazol-2-yl)-3-phenylpiperidin-1-yl)prop-2-en-1-one]
2610 nM | O=C(O)c1ccc(NC(=O)C2CCC(c3ccccc3)CN2C(=O)/C=C/c2cc(Cl)ccc2-n2cnnn2)cc1 (centres unmarked) [Example 1-71, (E)-4-(1-(3-(5-chloro-2-(1H-tetrazol-1-yl)phenyl)acryloyl)-5-phenylpiperidine-2-carboxamido)benzoic acid]
63.6 nM | O=C(NC12CCC(C(=O)O)(CC1)CC2)[C@@H]1[C@H](c2ccccc2)CCCN1C(=O)/C=C/c1cc(Cl)ccc1-n1cnnn1 [Example 1-72, 4-((2S,3S)-1-((E)-3-(5-chloro-2-(1H-tetrazol-1-yl)phenyl)acryloyl)-3-phenylpiperidine-2-carboxamido)bicyclo[2.2.2]octane-1-carboxylic acid]
